Our source for the Kd values is PubChem BioAssay AID1648 (Sanford-Burnham Center for Chemical Genomics, 2009).

The Kd is the constant that tells how readily two partners part at equilibrium.

In the experiment the target is Serine/threonine-protein kinase mTOR (Homo sapiens) (UniProt P42345). The experiment in a line: mTOR FRB domain ligand binding – biophysical, NMR (AID 1648). The settings on record: NMR binding to FRB domain, chemical shift.

Molecules are shown by their SMILES. Active and inactive are the calls of the source. The rule behind the calls is not given here.

Chain of Serine/threonine-protein kinase mTOR (Homo sapiens) (P42345 2015-2114): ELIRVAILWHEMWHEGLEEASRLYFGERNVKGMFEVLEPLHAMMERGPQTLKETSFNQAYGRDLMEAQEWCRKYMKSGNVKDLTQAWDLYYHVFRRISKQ

`COc1ccc(NC2=NCC(C)S2)cc1` (stereo not drawn): the Kd was > 4 mM (inactive).

Take `CCc1ccccc1NC(=O)c1ccoc1C`: the Kd is > 4 mM (inactive).

Regarding `Cc1cc(C)n2nc(C(=O)Nc3cccnc3)nc2n1`, the Kd was > 4 mM (inactive).

In the case of `NCc1nc2ccccc2s1`, the Kd was > 4 mM (inactive).

Regarding `CC(=O)N1C(=S)NC(=O)/C1=C\c1cccnc1`, the Kd is > 4 mM (inactive).

With `COc1cc(-c2nnc(NC(C)=O)o2)cc(OC)c1OC`, the Kd was > 4 mM (inactive).

Turning to `Cc1cc(-c2ccc(Cl)cc2)n2nc(N)nc2n1`, the Kd is > 4 mM (inactive).

As to `CCCc1cc(=O)[nH]c2nnc(SCC(C)=O)n12`, the Kd is > 4 mM (inactive).

For `COc1cc2c(c(OC)c1OC)-c1ccc(OC)c(=O)cc1[C@@H](NC(C)=O)CC2`, the Kd is > 4 mM (inactive).

As for `O=C(c1cccc(C(F)(F)F)c1)N1CCCC1`, the Kd is > 4 mM (inactive).

Consider `O=C(O)C1=CCCNC1`, for which the Kd was > 4 mM (inactive).

In the case of `Nc1nc(-c2ccc(O)cc2)cs1`, the Kd was > 4 mM (inactive).

Turning to `NC(=O)CCn1cnc2ccccc21`, the Kd was > 4 mM (inactive).

Take `O=C(O)C1CSC(c2ccco2)N1` (stereo not drawn): the Kd was > 4 mM (inactive).

In the case of `COc1ccc2c(c1)OCC(Cc1ccc(OC)c(OC(C)=O)c1)C2=O` (stereo not drawn), the Kd is > 4 mM (inactive).

`CC(=O)Nc1ccn(Cc2c(F)cccc2Cl)n1`: the Kd is > 4 mM (inactive).

As to `CC(=O)OCC[C@H](C)CCC=C(C)C`, the Kd was > 4 mM (inactive).

Regarding `COc1cc(C)nc(N(CCO)CCO)n1`, the Kd was > 4 mM (inactive).

For `Cc1cc(C)n(C2CCS(=O)(=O)C2)n1` (stereo not drawn), the Kd is > 4 mM (inactive).

For the molecule `COc1cc2occc2c2oc(=O)ccc12`, the Kd is > 4 mM (inactive).

Take `O=C(Nc1ccc2c(c1)OCO2)c1c(F)cccc1F`: the Kd was > 4 mM (inactive).

Regarding `CC(=O)N1CCN(c2ccc(N)cc2)CC1`, the Kd is > 4 mM (inactive).

`Nc1nc2ccc(C(=O)O)cc2s1`: the Kd is > 4 mM (inactive).

Turning to `NCc1ccc(-c2csnn2)cc1`, the Kd was > 4 mM (inactive).

On to `COc1cc2c(cc1OC)-c1cc3ccc(OC)c(OC)c3c[n+]1CC2`, for which the Kd is > 4 mM (inactive).

For the molecule `NCc1ccccc1N1CCOCC1`, the Kd was > 4 mM (inactive).

For the molecule `NC(=O)c1c[nH]c2ccccc12`, the Kd is > 4 mM (inactive).

Take `Cn1ccc(NC(=S)Nc2cccc([N+](=O)[O-])c2)n1`: the Kd was > 4 mM (inactive).

Regarding `Cc1cc(C(=O)N2CCCCCC2)cs1`, the Kd is > 4 mM (inactive).

As to `O=C(O)CS(=O)(=O)c1ccccc1`, the Kd was > 4 mM (inactive).

In the case of `CC(=O)OC1CCC23C(=O)OC45CCC(C6=CC(=O)OC6)C4(C)CCC2C5CCC3(O)C1` (stereo not drawn), the Kd is > 4 mM (inactive).

Take `Nc1c(C(=O)O)sc2ncccc12`: the Kd is > 4 mM (inactive).

On to `CSc1ccccc1NC(=O)c1cccnc1`, for which the Kd was > 4 mM (inactive).

Consider `COc1ccc2nc(N)sc2n1`, for which the Kd was > 4 mM (inactive).

For the molecule `CN(C)C(=O)C12CCC(C)(C(=O)O1)C2(C)C` (stereo not drawn), the Kd was > 4 mM (inactive).

Take `Brc1ccc(-c2nc(-c3ccncc3)no2)o1`: the Kd is > 4 mM (inactive).

For `Cc1cc2ncn(S(=O)(=O)N3CCOCC3)c2cc1C`, the Kd was > 4 mM (inactive).

Regarding `CN1CCN(C2CCN(Cc3ccccc3)CC2)CC1`, the Kd is > 4 mM (inactive).

For `Cc1cc(=O)cc(C)n1-c1ccccc1N`, the Kd was > 4 mM (inactive).

Turning to `Cc1cccc(NS(=O)(=O)c2cccs2)n1`, the Kd is > 4 mM (inactive).

For `CC(C)NC(=S)NCc1cnn(C)c1`, the Kd is > 4 mM (inactive).

`CC(C)CNc1cc(=O)n(C)c(=O)n1C`: the Kd was > 4 mM (inactive).

Take `COc1ccc2c(c1OC)C(=O)O[C@H]2[C@H]1c2cc3c(cc2CCN1C)OCO3`: the Kd was > 4 mM (inactive).

Consider `CC(=O)n1nc(-c2cccnc2)nc1N`, for which the Kd was > 4 mM (inactive).

`O=C(O)Cn1c(=O)sc2ccccc21`: the Kd is > 4 mM (inactive).

In the case of `O=C(O)c1cccc(CSc2ncccn2)c1`, the Kd is > 4 mM (inactive).

For `CC(=O)Nc1c(Cl)cnn(-c2ccccc2)c1=O`, the Kd was > 4 mM (inactive).

For the molecule `CN(C)N1C(=O)C2CCCCC2C1=O` (stereo not drawn), the Kd is > 4 mM (inactive).

Take `Nc1nonc1-c1nc2ccccc2[nH]1`: the Kd was > 4 mM (inactive).

As to `Cc1occc1C(=O)Nc1nnc(C(F)(F)F)s1`, the Kd was > 4 mM (inactive).

For `Nc1cccc(S(=O)(=O)N2CCOCC2)c1`, the Kd was > 4 mM (inactive).

With `COc1ccc(NS(=O)(=O)c2ccc(N)cc2)nn1`, the Kd was > 4 mM (inactive).

Consider `CC(=O)Nc1ccc(CN2CCOCC2)cc1`, for which the Kd is > 4 mM (inactive).

On to `CN(C)S(=O)(=O)c1cccc(N)c1`, for which the Kd was > 4 mM (inactive).

For the molecule `O=S(=O)(c1cccc2cccnc12)N1CCOCC1`, the Kd was > 4 mM (inactive).

Take `COCC(=O)/C=C1\Sc2ccccc2N1C`: the Kd is > 4 mM (inactive).

Regarding `OCc1ccc(-c2cccs2)s1`, the Kd is > 4 mM (inactive).

`OCc1csc(-c2cccs2)n1`: the Kd is > 4 mM (inactive).

Consider `O=C(O)c1cnn2ccccc12`, for which the Kd is > 4 mM (inactive).

For `Cc1ccc(C(=O)n2cnnc2N)cc1C`, the Kd was > 4 mM (inactive).

With `O=C(/C=C/c1ccco1)NC1=NCCS1`, the Kd is > 4 mM (inactive).

`O=c1[nH]cc(CN2CCOCC2)c(=O)[nH]1`: the Kd is > 4 mM (inactive).

For the molecule `Nc1ccc2c(c1)OCCO2`, the Kd is > 4 mM (inactive).

Regarding `O=C1NC(=O)C(Cc2cccs2)C(=O)N1`, the Kd is > 4 mM (inactive).

As for `CSc1ccccc1NC(=O)c1ccoc1C`, the Kd was > 4 mM (inactive).

For the molecule `CNC[C@@H](O)c1ccc(O)c(O)c1`, the Kd was > 4 mM (inactive).

Turning to `O=S(=O)(Nc1cccc2cn[nH]c12)c1ccc(F)cc1`, the Kd was > 4 mM (inactive).

In the case of `Cn1cc(Cl)c(C(=O)NC2CCCCCC2)n1`, the Kd was > 4 mM (inactive).

Consider `N#C/C(=C\c1ccc[nH]1)S(=O)(=O)c1ccccc1`, for which the Kd was > 4 mM (inactive).

Consider `CC(C)=CCc1c2c(c3occ(-c4ccc(O)c(O)c4)c(=O)c3c1O)C=CC(C)(C)O2`, for which the Kd was > 4 mM (inactive).

In the case of `CC(=O)Nc1cccc(-c2nc3ccccc3c(=O)o2)c1`, the Kd was > 4 mM (inactive).

As for `CC(=O)Oc1ccc(-c2nc(-c3cccnc3)no2)cc1`, the Kd was > 4 mM (inactive).

Consider `COC(=O)c1[nH]c2ccccc2c1C(=O)OC`, for which the Kd was > 4 mM (inactive).

`CC1(NC(=O)NCc2ccccc2)CCS(=O)(=O)C1` (stereo not drawn): the Kd was > 4 mM (inactive).

In the case of `COc1ccc(-c2coc3cc(OC(C)=O)cc(OC(C)=O)c3c2=O)cc1`, the Kd was > 4 mM (inactive).

Turning to `COC(=O)c1c(C)c2c(c(C)c1O)OC(=O)c1c(C)c(Cl)c(O)c(Cl)c1O2`, the Kd is > 4 mM (inactive).

For the molecule `CC(=O)Nc1c(C#N)c(C(C)(C)C)cn1C`, the Kd is > 4 mM (inactive).

In the case of `CN1CCN(C(=O)c2ccccc2C(=O)O)CC1`, the Kd is > 4 mM (inactive).

Consider `O=C(c1ccco1)N1CCN(c2ccc(Cl)cc2)CC1`, for which the Kd was > 4 mM (inactive).

As to `CC(C)CCCC1(C)C=Cc2c(O)c3c(c(CCC(C)C)c2O1)OC12C(CC4CC1C(C)(C)OC2(CCC(C)C(=O)O)C4O)C3=O` (stereo not drawn), the Kd is > 4 mM (inactive).

Take `COC(=O)N1CCN(c2ccc(OC)cc2)CC1`: the Kd was > 4 mM (inactive).

Regarding `CN(C)S(=O)(=O)c1ccc(N2CCOCC2)nc1`, the Kd was > 4 mM (inactive).

Take `Nc1nncn1C(=O)c1ccccc1Cl`: the Kd is > 4 mM (inactive).

With `C[C@@H]1O[C@@H](O[C@H]2CC[C@]3(C=O)C4CC[C@]5(C)[C@@H](C6=CC(=O)OC6)CC[C@]5(O)C4CC[C@]3(O)C2)[C@H](O)[C@H](O)[C@H]1O` (stereo partly drawn), the Kd is > 4 mM (inactive).

`CC(=O)O[C@@H]1CC2C(C)(C)[C@H](O)C[C@H](O)[C@]2(C)C2CC[C@@]3(C)C(=CC(=O)O[C@H]3c3ccoc3)[C@@]21C` (stereo partly drawn): the Kd is > 4 mM (inactive).

On to `Cc1cc(NC(=O)c2cnn3cccnc23)no1`, for which the Kd was > 4 mM (inactive).

Take `Cc1noc(C)c1C(=O)Nc1ccccc1-c1ccccc1`: the Kd is > 4 mM (inactive).

For `O=C(c1nc2ncccn2n1)N1CCc2ccccc2C1`, the Kd is > 4 mM (inactive).

With `O=C(O)Cn1cc(C(=O)C2CC2)c2ccccc21`, the Kd is > 4 mM (inactive).

Turning to `CSc1nnc2[nH]c(=O)cc(N)n12`, the Kd is > 4 mM (inactive).

Consider `CS(C)=C1C(=O)NC(=O)N(Cc2ccc(F)cc2)C1=O`, for which the Kd is > 4 mM (inactive).

Turning to `NC(=O)C12CC3CC(C1)C(=O)C(C3)C2`, the Kd is > 4 mM (inactive).

Regarding `C=C(C)C1(O)OC(=O)C=C1OC` (stereo not drawn), the Kd was > 4 mM (inactive).
